The target in this experiment is SHP2 (Homo sapiens (Human), UniProt Q06124). Kind of experiment: SHP2 Allosteric Inhibition Assay (DiFMUP prompt fluorescence). The settings on record: 0.25 nM SHP2 activated with 0.5 μM peptide IRS1_pY1172(dPEG8)pY1222; substrate DiFMUP 100 μM; 25° C. Format: biochemical.

Results on 44 molecules are retold here after US11591336B2 (Relay Therapeutics, Inc., priority 2017, dated 2023).

Structures are written as SMILES. Counter-ions that a name gives are not always drawn.

Sequence of SHP2 (Q06124 whole entry): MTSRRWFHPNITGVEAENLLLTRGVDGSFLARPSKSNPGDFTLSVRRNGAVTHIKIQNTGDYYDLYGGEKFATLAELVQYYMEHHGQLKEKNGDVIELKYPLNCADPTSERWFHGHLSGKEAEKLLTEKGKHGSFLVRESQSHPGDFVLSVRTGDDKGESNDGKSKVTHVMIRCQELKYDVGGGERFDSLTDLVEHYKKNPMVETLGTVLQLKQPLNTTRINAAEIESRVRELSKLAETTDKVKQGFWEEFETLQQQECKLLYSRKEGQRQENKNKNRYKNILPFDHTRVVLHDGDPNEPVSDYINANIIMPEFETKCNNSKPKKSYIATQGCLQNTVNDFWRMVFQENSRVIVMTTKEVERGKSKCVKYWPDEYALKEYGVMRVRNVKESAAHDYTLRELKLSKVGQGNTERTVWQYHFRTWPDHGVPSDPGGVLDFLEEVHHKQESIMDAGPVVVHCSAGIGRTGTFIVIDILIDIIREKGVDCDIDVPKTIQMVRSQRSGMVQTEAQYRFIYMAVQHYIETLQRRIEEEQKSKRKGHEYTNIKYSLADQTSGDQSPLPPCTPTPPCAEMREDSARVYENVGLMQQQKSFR

Consider `CNC(=O)c1ccc2c(n1)[C@@H](C)CCN2c1n[nH]c2nc(N3CCC4(CC3)CO[C@@H](C)[C@H]4N)cnc12` [Compound 362, (8S)-5-{6-[(3S,4S)-4-amino-3-methyl-2-oxa-8-azaspiro[4.5]decan-8-yl]-1H-pyrazolo[3,4-b]pyrazin-3-yl}-N,8-dimethyl-5,6,7,8-tetrahydro-1,5-naphthyridine-2-carboxamide], for which the IC50 was < 1000 nM.
For `CNC(=O)c1ccc2c(n1)[C@H](C)CCN2c1n[nH]c2nc(N3CCC4(CC3)CO[C@@H](C)[C@H]4N)cnc12` [Compound 363, (8R)-5-{6-[(3S,4S)-4-amino-3-methyl-2-oxa-8-azaspiro[4.5]decan-8-yl]-1H-pyrazolo[3,4-b]pyrazin-3-yl}-N,8-dimethyl-5,6,7,8-tetrahydro-1,5-naphthyridine-2-carboxamide] the value was < 1000 nM; for `C[C@@H]1OCC2(CCN(c3cnc4c(N5CC[C@H](C)c6nc(C(=O)N(C)C)ccc65)n[nH]c4n3)CC2)[C@@H]1N` [Compound 364, (8S)-5-{6-[(3S,4S)-4-amino-3-methyl-2-oxa-8-azaspiro[4.5]decan-8-yl]-1H-pyrazolo[3,4-b]pyrazin-3-yl}-N,N,8-trimethyl-5,6,7,8-tetrahydro-1,5-naphthyridine-2-carboxamide], < 1000 nM.
For `C[C@@H]1OCC2(CCN(c3cnc4c(N5CCCc6cc(-c7cnn(C)c7)ccc65)n[nH]c4n3)CC2)[C@@H]1N` [Compound 365] the value was < 1000 nM; for `CNC(=O)c1ccc2c(c1)N(C)CCN2c1n[nH]c2nc(N3CCC4(CC3)CO[C@@H](C)[C@H]4N)cnc12` [Compound 366, 1-{6-[(3S,4S)-4-amino-3-methyl-2-oxa-8-azaspiro[4.5]decan-8-yl]-1H-pyrazolo[3,4-b]pyrazin-3-yl}-N,4-dimethyl-1,2,3,4-tetrahydroquinoxaline-6-carboxamide], < 1000 nM; for `C[C@@H]1OCC2(CCN(c3cnc4c(N5CCN(C)c6c5cccc6S(C)(=O)=O)n[nH]c4n3)CC2)[C@@H]1N` [Compound 367], < 1000 nM.
For `CCS(=O)(=O)c1cccc2c1CCCN2c1n[nH]c2nc(N3CCC4(CC3)CO[C@@H](C)[C@H]4N)cnc12` [Compound 368] the value was < 1000 nM; for `C[C@@H]1OCC2(CCN(c3cnc4c(N5CCCc6c5cccc6P(C)(C)=O)n[nH]c4n3)CC2)[C@@H]1N` [Compound 369], < 1000 nM.
For the molecule `C[C@@H]1OCC2(CCN(c3cnc4c(N5CCCc6nc(-c7cnn(C8COC8)c7)ccc65)n[nH]c4n3)CC2)[C@@H]1N` [Compound 372, (3S,4S)-3-methyl-8-(3-{6-[1-(oxetan-3-yl)-1H-pyrazol-4-yl]-1,2,3,4-tetrahydro-1,5-naphthyridin-1-yl}-1H-pyrazolo[3,4-b]pyrazin-6-yl)-2-oxa-8-azaspiro[4.5]decan-4-amine], the half-inhibitory concentration (IC50) is < 1000 nM.
For `C[C@@H]1OCC2(CCN(c3cnc4c(N5CCCc6c5cccc6[N+](=O)[O-])n[nH]c4n3)CC2)[C@@H]1N` [Compound 373] the value was < 1000 nM.
As for `C[C@@H]1OCC2(CCN(c3cnc4c(N5CCCc6c5cccc6N(C)S(C)(=O)=O)n[nH]c4n3)CC2)[C@@H]1N` [Compound 374], the figure is < 1000 nM.
As for `C[C@@H]1OCC2(CCN(c3cnc4c(N5CCCc6c(N)cccc65)n[nH]c4n3)CC2)[C@@H]1N` [Compound 375, (3S,4S)-8-[3-(5-amino-1,2,3,4-tetrahydroquinolin-1-yl)-1H-pyrazolo[3,4-b]pyrazin-6-yl]-3-methyl-2-oxa-8-azaspiro[4.5]decan-4-amine], the figure is < 1000 nM; as for `CC(=O)Nc1cccc2c1CCCN2c1n[nH]c2nc(N3CCC4(CC3)CO[C@@H](C)[C@H]4N)cnc12` [Compound 376, N-(1-{6-[(3S,4S)-4-amino-3-methyl-2-oxa-8-azaspiro[4.5]decan-8-yl]-1H-pyrazolo[3,4-b]pyrazin-3-yl}-1,2,3,4-tetrahydroquinolin-5-yl)acetamide], < 1000 nM; as for `C[C@@H]1OCC2(CCN(c3cnc4c(N5CCN(C)c6nc(Cl)ccc65)n[nH]c4n3)CC2)[C@@H]1N` [Compound 377], < 1000 nM.
On to `C[C@@H]1OCC2(CCN(c3cnc4c(N5CCCc6nc(O)ccc65)n[nH]c4n3)CC2)[C@@H]1N` [Compound 378], for which the concentration for half-maximal inhibition (IC50) is < 1000 nM.
As for `Cc1cccc2c1N(C1CC1)CCN2c1n[nH]c2nc(N3CCC4(CC3)CO[C@@H](C)[C@H]4N)cnc12` [Compound 379], the figure is < 1000 nM; as for `C[C@@H]1OCC2(CCN(c3cnc4c(N5CCCc6nc(-c7cnoc7)ccc65)n[nH]c4n3)CC2)[C@@H]1N` [Compound 380, (3S,4S)-3-methyl-8-{3-[6-(1,2-oxazol-4-yl)-1,2,3,4-tetrahydro-1,5-naphthyridin-1-yl]-1H-pyrazolo[3,4-b]pyrazin-6-yl}-2-oxa-8-azaspiro[4.5]decan-4-amine], < 1000 nM.
For `Cc1cnc(-c2ccc3c(n2)CCCN3c2n[nH]c3nc(N4CCC5(CC4)CO[C@@H](C)[C@H]5N)cnc23)s1` [Compound 382] the value was < 1000 nM.
For `C[C@@H]1OCC2(CCN(c3cnc4c(N5CCN(C)c6nc(C#N)ccc65)n[nH]c4n3)CC2)[C@@H]1N` [Compound 383] the value was < 1000 nM; for `Cc1cccc2c1N(C)CCN2c1n[nH]c2nc(N3CCC4(CC3)CO[C@@H](C)[C@H]4N)cnc12` [Compound 384], < 1000 nM; for `CC1Cc2ccccc2C(=O)N1c1n[nH]c2nc(N3CCC4(CC3)CO[C@@H](C)[C@H]4N)cnc12` (some centres unmarked) [Compound 385], ≥ 10000 nM.
Consider `C[C@@H]1OCC2(CCN(c3cnc4c(N5CCCc6c(C#N)cccc65)n[nH]c4n3)CC2)[C@@H]1N` [Compound 386], for which the IC50 was < 1000 nM.
As to `CC(C)N1CCN(c2n[nH]c3nc(N4CCC5(CC4)CO[C@@H](C)[C@H]5N)cnc23)c2cccnc21` [Compound 387], the IC50 was < 1000 nM.
For `C[C@@H]1OCC2(CCN(c3cnc4c(N5CCCc6c5ccc(C#N)c6S(C)(=O)=O)n[nH]c4n3)CC2)[C@@H]1N` [Compound 388] the value was 1000 to 10000 nM.
As for `Cc1nnc(-c2cccc3c2CCCN3c2n[nH]c3nc(N4CCC5(CC4)CO[C@@H](C)[C@H]5N)cnc23)o1` [Compound 389], the figure is < 1000 nM; as for `COCc1cccc2c1CCCN2c1n[nH]c2nc(N3CCC4(CC3)CO[C@@H](C)[C@H]4N)cnc12` [Compound 390], < 1000 nM.
For `COC(=O)N1CCN(c2n[nH]c3nc(N4CCC5(CC4)CO[C@@H](C)[C@H]5N)cnc23)c2ccccc21` [Compound 391] the value was < 1000 nM; for `C[C@@H]1OCC2(CCN(c3cnc4c(N5CCCc6c5cccc6N5CCCS5(=O)=O)n[nH]c4n3)CC2)[C@@H]1N` [Compound 392], < 1000 nM; for `C[C@@H]1OCC2(CCN(c3cnc4c(N5CCCc6sccc65)n[nH]c4n3)CC2)[C@@H]1N` [Compound 394], < 1000 nM.
As for `C[C@@H]1OCC2(CCN(c3cnc4c(N5CCN(C)c6cc(-c7ncco7)ccc65)n[nH]c4n3)CC2)[C@@H]1N` [Compound 395], the IC50 was < 1000 nM.
For `C[C@@H]1OCC2(CCN(c3cnc4c(N5CCCc6nc(C7=CCCCC7)ccc65)n[nH]c4n3)CC2)[C@@H]1N` [Compound 396, (3S,4S)-8-{3-[6-(cyclohex-1-en-1-yl)-1,2,3,4-tetrahydro-1,5-naphthyridin-1-yl]-1H-pyrazolo[3,4-b]pyrazin-6-yl}-3-methyl-2-oxa-8-azaspiro[4.5]decan-4-amine hydrochloride] the value was < 1000 nM; for `C/C(=N/O)c1ccc2c(n1)CCCN2c1n[nH]c2nc(N3CCC4(CC3)CO[C@@H](C)[C@H]4N)cnc12` [Compound 397, (3,4S)-8-(3-{6-[(1Z)-1-(hydroxyimino)ethyl]-1,2,3,4-tetrahydro-1,5-naphthyridin-1-yl}-1H-pyrazolo[3,4-b]pyrazin-6-yl)-3-methyl-2-oxa-8-azaspiro[4.5]decan-4-amine], < 1000 nM.
Take `C[C@@H]1OCC2(CCN(c3cnc4c(N5CCN(C6COC6)c6cc(C#N)ccc65)n[nH]c4n3)CC2)[C@@H]1N` [Compound 398]: the IC50 is < 1000 nM.
As for `CNC(=O)CN1CCN(c2n[nH]c3nc(N4CCC5(CC4)CO[C@@H](C)[C@H]5N)cnc23)c2ccc(C#N)cc21` [Compound 399], the figure is < 1000 nM; as for `C[C@@H]1OCC2(CCN(c3cnc4c(N5CCCc6c([C@H]7CCOC7)cccc65)n[nH]c4n3)CC2)[C@@H]1N` [Compound 400], < 1000 nM; as for `C[C@@H]1OCC2(CCN(c3cnc4c(N5CCCc6c([C@@H]7CCOC7)cccc65)n[nH]c4n3)CC2)[C@@H]1N` [Compound 401], < 1000 nM.
As for `C[C@@H]1OCC2(CCN(c3cnc4c(N5CCN([C@H]6CCOC6)c6cc(C#N)ccc65)n[nH]c4n3)CC2)[C@@H]1N` [Compound 402], the figure is < 1000 nM.
As for `C[C@@H]1OCC2(CCN(c3cnc4c(N5CCN([C@@H]6CCOC6)c6cc(C#N)ccc65)n[nH]c4n3)CC2)[C@@H]1N` [Compound 403], the figure is < 1000 nM.
`CNC(=O)c1nccc2c1CCCN2c1n[nH]c2nc(N3CCC4(CC3)CO[C@@H](C)[C@H]4N)cnc12` [Compound 404, 1-{6-[(3S,4S)-4-amino-3-methyl-2-oxa-8-azaspiro[4.5]decan-8-yl]-1H-pyrazolo[3,4-b]pyrazin-3-yl}-N-methyl-1,2,3,4-tetrahydro-1,6-naphthyridine-5-carboxamide]: the IC50 is < 1000 nM.
As for `CCN1CCN(c2n[nH]c3nc(N4CCC5(CC4)CO[C@@H](C)[C@H]5N)cnc23)c2ccc(C#N)cc21` [Compound 405], the figure is < 1000 nM; as for `COCCN1CCN(c2n[nH]c3nc(N4CCC5(CC4)CO[C@@H](C)[C@H]5N)cnc23)c2ccc(C#N)cc21` [Compound 406], < 1000 nM; as for `Cc1nnc(-c2ccc3c(n2)CCCN3c2n[nH]c3nc(N4CCC5(CC4)CO[C@@H](C)[C@H]5N)cnc23)s1` [Compound 407], < 1000 nM.
For `C[C@@H]1OCC2(CCN(c3cnc4c(N5CCN(CCS(C)(=O)=O)c6cc(C#N)ccc65)n[nH]c4n3)CC2)[C@@H]1N` [Compound 408] the value was < 1000 nM; for `CC(C)N1CCN(c2n[nH]c3nc(N4CCC5(CC4)CO[C@@H](C)[C@H]5N)cnc23)c2ccc(C#N)cc21` [Compound 409], < 1000 nM.

In general, IC50 refers to the concentration that inhibits the measured activity by half.
